Results as given in patent publication US8772318B2, “Methods and compositions related to targeting monoacylglycerol lipase” (The Scripps Research Institute, priority 2008, dated 2014).

Tests used:
FAAH = target: T1, FAAH (Mus musculus, UniProt O08914); test: FAAH activity of brain membranes from treated mice (competitive ABPP, oleamide substrate assay); type: in vivo; details: URB597 10 mg/kg, i.p.
T1 construct: from tissue; host or cells: mouse brain membrane fraction
T1 sequence (O08914 1-579): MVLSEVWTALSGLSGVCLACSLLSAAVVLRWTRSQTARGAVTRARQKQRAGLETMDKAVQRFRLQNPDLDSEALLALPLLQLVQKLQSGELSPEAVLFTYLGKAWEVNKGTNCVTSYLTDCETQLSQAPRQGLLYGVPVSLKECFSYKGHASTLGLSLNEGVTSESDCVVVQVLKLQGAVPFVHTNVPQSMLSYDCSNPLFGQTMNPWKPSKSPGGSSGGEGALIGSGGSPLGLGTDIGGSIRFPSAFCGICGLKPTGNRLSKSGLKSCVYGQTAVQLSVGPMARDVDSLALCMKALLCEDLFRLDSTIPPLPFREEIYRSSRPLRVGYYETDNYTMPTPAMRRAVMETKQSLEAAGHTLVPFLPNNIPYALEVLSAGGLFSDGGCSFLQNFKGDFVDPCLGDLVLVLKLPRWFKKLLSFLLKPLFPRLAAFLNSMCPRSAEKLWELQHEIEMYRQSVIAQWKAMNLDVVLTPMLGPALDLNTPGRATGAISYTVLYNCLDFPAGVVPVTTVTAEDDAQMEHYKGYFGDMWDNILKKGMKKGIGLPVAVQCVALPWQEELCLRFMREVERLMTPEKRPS
Experimental: Enzyme activity assays. Briefly, 2-AG (100 μM) was incubated with mouse brain membrane (20 μg) or recombinant MAGL in COS7 cells (0.1 μg) in PBS (200 μl) at room temperature for 10 min. The reactions were quenched by the addition of 500 μL 2:1 v/v CHCl3:MeOH, doped with 0.5 nmol PDA, vortexed, then centrifuged (1,400×g, 3 min) to separate the phases. 30 ul of the resultant organic phase was injected onto an Agilent 1100 series LC-MSD SL instrument. […] Mobile phase A was composed of 95:5 v/v H2O:MeOH, and mobile phase B was composed of 60:35:5 v/v/v i-PrOH:MeOH:H2O. 0.1% ammonium hydroxide was included to assist in ion formation in negative ionization mode. […] Hydrolysis products were quantified by measuring the area under the peak in comparison to the PDA standard. ^13C-oleamide or AEA hydrolysis activity was determined using mouse brain membrane (50 μg) or recombinant FAAH in COST cells (5 μg), respectively, in PBS (100 μl). […] DAGLβ hydrolysis activity was determined using recombinant DAGLβ in HEK293 cells (50 μg) in PBS (100 μl). […]
Competitive activity-based protein profiling (ABPP) experiments. […] After 30 min at room temperature, the reactions were quenched with 4×SDS-PAGE loading buffer, boiled for 5 min at 90° C., subjected to SDS-PAGE, and visualized in-gel using a flatbed fluorescence scanner. […]

[1] = system: brain levels of 2-AG, arachidonic acid, NAEs, MAGs, free fatty acids; test: Measurement of brain lipids in treated mice; type: in vivo, mouse; details: URB597 10 mg/kg, i.p.
Experimental: Measurement of brain lipids. One half brain was weighed and subsequently Dounce homogenized in 2:1:1 v/v/v CHCl3:MeOH:Tris pH 8.0 (8 ml) containing standards for N-acylethanolamine (NAE), monoacylglycerol (MAG), or free fatty acid (FFA) measurements (200 pmol d4-OEA, 20 pmol d4-AEA, 400 pmol C15:0-MAG, and 4 nmol PDA). The mixture was vortexed and then centrifuged (1,400×g, 10 min). The organic layer was removed, CHCl3 was added until the final volume was again 8 ml, and the extraction was repeated. The combined organic extracts were dried under a stream of N2 and resolubilized in 2:1 v/v CHCl3:MeOH (120 μl). 30 uL and 15 uL of resolubilized lipid were injected for positive mode (MAG and NAE) and negative mode (free fatty acid) measurements, respectively. Lipid measurements were performed by LC-MS using the same instrument and solvents as described above. Solvent modifiers such as 0.1% formic acid or 0.1% ammonium hydroxide were included to assist in ion formation in positive and negative ionization mode, respectively. For positive mode measurements, the flow rate for each run started at 0.1 ml/min for 5 min. […] MAGs, NAEs, and FFAs were quantified by measuring the area under the peak in comparison to the C15:0 or deuterated standards. […]

[2] = system: human cancer cell lines (C8161, SKOV3, 231MFP, MUM2C, OVCAR3); test: Lipid measurements in cancer cells; type: cell-based; details: antagonist 1 μM, 4 hr
Experimental: Pharmacological inhibition of MAGL in cancer cells. Pharmacological inhibition studies were conducted as described previously (Chiang et al., Chem. Biol. 13:1041-1050, 2006). Cancer cells were maintained in RPMI medium 1640 with 10% (v/v) fetal calf serum at 37° C. in a humidified atmosphere of 5% CO2/95% air. At 80% confluency, cells were trypsinized and counted using a hemocytometer, and 1×10^6 cells were plated in 6 cm dishes (subconfluent). […] After incubation for 4 hr, the cells were harvested and analyzed by ABPP or LC-MS.
Lipid measurements in cancer cells. Lipid measurements were conducted similarly to protocols described previously (Chiang et al., 2006; supra). Cancer cells were grown in serum-free media for 4 hrs to minimize the contribution of serum-derived lipids to the cellular profiles. The cells (1×10^6 cells/6 cm dish, 80% confluency) were washed with twice with phosphate buffer saline (PBS), isolated by centrifugation at 1,400×g, and dounce-homogenized in 4 ml of a 2:1:1 mixture of chloroform:methanol:Tris buffer. Samples were homogenized in the presence of the following synthetic standards: C12:0 MAGE (10 nmol), C15:0 FFA (10 nmol). Organic and aqueous layers were separated by centrifugation at 2000×g for 5 min and the organic layer was collected. The aqueous layer was acidified (for metabolites such as LPA) by adding 5% formic acid, followed by the addition of 2 ml chloroform. The mixture was vortexed, and the organic layers were combined, dried down under N2 and dissolved in 100 μl chloroform, of which 30 μl was analyzed by LC-MS.
LC-MS analysis was performed by using an Agilent 1100 LC-MSD SL instrument. […] Mobile phase A was composed of a 95:5 ratio of water:methanol, and mobile phase B consisted of 2-propanol, methanol, and water in a 60:35:5 ratio. Solvent modifiers such as 0.1% formic acid and 0.1% ammonium hydroxide were used to assist ion formation as well as to improve the LC resolution in both positive and negative ionization modes, respectively. The flow rate for each run started at 0.1 ml/min for 5 min, to alleviate backpressure associated with injecting chloroform. The gradient started at 0% B and increased linearly to 100% B over the course of 45 min with a flow rate of 0.4 ml/min, followed by an isocratic gradient of 100% B for 17 min at 0.5 ml/min before equilibrating for 8 min at 0% B with a flow rate of 0.5 ml/min. MS analysis was performed with an electrospray ionization (ESI) source. The capillary voltage was set to 3.0 kV, and the fragmentor voltage was set to 100 V. The drying gas temperature was 350° C., the drying gas flow rate was 10 L/min, and the nebulizer pressure was 35 psi.
Lipidomic analysis was performed in both targeted and untargeted mode by LC-MS analysis. Standard lipid classes were quantitated by targeting using selected ion monitoring (SIM) (except for very high-abundance metabolites which were quantitated by untargeted analysis) and identities of metabolites were confirmed by coelution of metabolites with their respective standards and mass accuracy to within 10 ppm as determined with an accurate mass Agilent 6520 Accurate Mass QTOF-MS-MS. These lipids were quantified by measuring the area under the peak and were normalized to an internal standard (C12:0 MAGE in positive mode or C15:0 FFA in negative mode). […]

[3] = Bar test (catalepsy, hyperreflexia); type: in vivo, mouse; details: rimonabant 3 mg/kg before JZL184 16 mg/kg
Experimental: (§1) Behavioral Studies. […] A total of four groups of mice were used, with a sample size of 14 mice/group. Before injections, the mice were evaluated for baseline responses in the tail immersion test, as well for rectal temperatures. […] For determining hypomotility each mouse was placed in a clear Plexiglas box (42.7×21.0×20.4 cm) for a 10 min assessment period and Anymaze (Stoelting, Wood Dale, Ill.) software was used to determine the percentage of time spent immobile. Subjects were assessed for nociception in the tail immersion assay. Each mouse was placed head first into a small bag fabricated from absorbent under pads (VWR Scientific Products; 4 cm diameter, 11 cm length) with the tail out of the bag. The experimenter gently held the mouse and immersed approximately 1 cm of the tip of the tail into a water bath maintained at 56.0° C. The latency for the animal to withdraw its tail from the water within a 10 s cutoff time was scored. Catalepsy was evaluated using the bar test, in which the front paws of each subject were placed on a rod (0.75 cm diameter) that was elevated 4.5 cm above the surface. Mice that remained motionless with their paws on the bar for 10 s (with the exception of respiratory movements) were scored as cataleptic. […] Rectal temperature was determined by inserting a thermocouple probe 2.0 cm into the rectum and temperature was obtained from a telethermometer.

[4] = Acetic acid abdominal stretching (writhing) assay; type: in vivo, mouse; details: rimonabant 3 mg/kg before JZL184 16 mg/kg
Experimental: A second group of naïve subjects (n=10-11 mice/group) were evaluated in the acetic acid stretching assay. […] Acetic acid (0.6%) was injected intraperitoneally in a volume of 10 μl/g body weight 120 min after the second injection. The number of stretches (constriction of abdomen, turning of trunk (twist) and extension of the body and hind limbs) per mouse was counted during a 20-min period after the administration of acetic acid.

[5] = system: human cancer cell lines (C8161, SKOV3, 231MFP, MUM2C, OVCAR3); test: Cell migration assay (Transwell); type: cell-based; details: antagonist 1 μM, 4 hr
Experimental: Cell migration, cell survival, and invasion studies. Migration assays were performed in Transwell chambers (Corning) with 8 μm pore-sized membranes coated with 10 μg/ml collagen for 4 h at 37° C. A total of 24 hr before the start of the migration assay, cancer cell lines were plated at a concentration of 1×10^6 cells per 6 cm dish. At the start of the migration assay, cells were harvested by washing two times with PBS and were then serum starved in serum-free media for 4 hr. Inhibitor, lipid or vehicle (0.1% DMSO) were preincubated with the cells during this 4 h time. Serum-starved cells were trypsinized, spun at 1400×g for 3 min, resuspended, and counted. 50,000 cells were seeded in the upper chamber of the transwells in 200 μl serum-free media (containing inhibitor, lipid or vehicle). Inhibitor, lipid or vehicle was also added to the lower chamber, and cells were allowed to migrate for 5 h (for C8161 and 231MFP cells) or 20 hr (SKOV3, MUM2C and OVCAR3 cells). The filters were then fixed and stained with Diff-Quik (Dade Behring). Cells that had not migrated through the chamber were removed with a cotton ball. The cells that migrated were counted at a magnification of 400×, and 4 fields were independently counted from each migration chamber. An average of cells in 4 fields for one migration chamber represents n=1.

[6] = Tail immersion assay of thermal pain sensation; type: in vivo, mouse; details: rimonabant 3 mg/kg before JZL184 16 mg/kg
Experimental: as §1

[7] = Rectal temperature (hypothermia); type: in vivo, mouse; details: rimonabant 3 mg/kg before JZL184 16 mg/kg
Experimental: as §1

[8] = Locomotor activity (hypomotility); type: in vivo, mouse
Experimental: as §1

SMILES	brain FAAH activity (FAAH)	brain 2-AG or arachidonic acid levels [1]	brain anandamide and other NAEs [1]	FFA levels in shControl and shMAGL cancer cells [2]	effect of rimonabant on JZL184 hyperreflexia effect [3]	effect of rimonabant pre-treatment on JZL184 analgesia, acetic acid writhing [4]	migratory defect in shMAGL cancer cells [5]	effect of rimonabant pre-treatment on JZL184 analgesia, tail immersion [6]	effect of rimonabant on JZL184 hypothermic effect [7]	movement, rimonabant on its own ([8]; rimonabant 3 mg/kg)	effect of rimonabant on JZL184-induced immobility ([8]; rimonabant 3 mg/kg before JZL184 16 mg/kg)
NC(=O)c1cccc(-c2cccc(OC(=O)NC3CCCCC3)c2)c1 [URB597]	completely inhibited	without altering	significant elevations								
Cc1c(C(=O)NN2CCCCC2)nn(-c2ccc(Cl)cc2Cl)c1-c1ccc(Cl)cc1 [rimonabant]				unchanged	completely blocked	blocked	not rescued	blocked	completely blocked	significant reductions in movement	partial blockade
